According to US20100048692A1, “Naphthofuranone Derivatives as Specific Inhibitors of Thymidylate Synthases” (priority 2006, published 2010):
In brackets after ≈: the same amount, converted by molar mass.

How the values were obtained:
[1] = molecular target: T1, hDHFR (human DHFR) (Homo sapiens, UniProt P00374); assay: Enzymatic inhibition assay (Ki), human DHFR; assay type: biochemical
T1 construct: made in house; host or cells: Escherichia coli chi2913
T1 sequence (P00374 1-187): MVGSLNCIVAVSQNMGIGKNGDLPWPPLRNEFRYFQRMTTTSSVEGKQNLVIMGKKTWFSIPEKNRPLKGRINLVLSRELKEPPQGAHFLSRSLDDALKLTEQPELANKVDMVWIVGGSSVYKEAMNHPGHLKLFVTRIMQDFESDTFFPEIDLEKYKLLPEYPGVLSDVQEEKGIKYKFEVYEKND
Procedure: The purified enzyme has been stored at −80° C. […] The enzymatic assays for the measurements of the Km consist in measuring the initial rate of the enzymatic reaction in presence of variable and increasing substrate (FAH2).
(§1) Enzymatic inhibition assay: The compounds hereby analyzed were previously dissolved in DMSO. The inhibitor concentrated solution was obtained by dissolving 2 mg of compound in 1 mL of DMSO. Next, solutions thus obtained were successively preserved and the […], and the stability of their working conditions was constantly controlled. The spectrophotometrical determinations of enzymatic reaction kinetics were carried out using a Parkin-Elmer λ16 spectrophotometer, provided with a multicell system which was maintained at the constant temperature of 20 C. degrees, with a HAAAKE F3C thermostatted bath.
The measurement of Ki (inhibition constant) was obtained through enzymatic inhibition essays carried out under stationary conditions. […] The enzyme is added finally. The assay aiming at controlling TS enzymatic activity is repeated at regular intervals. […] In this case inhibition constants were obtained through a non-linear regression analysis, which utilized of the least squared method, of the enzymatic reaction initial speeds relating to the inhibitor concentration; equation was the following: […]

[2] = molecular target: CnTS (Cryptococcus neoformans, UniProt P0CS12); assay type: biochemical
Procedure: as §1
The elaboration of the data was carried out using Kaleidagraph 3.0; this software was provided by Macintosh (Adelbeck, Software Reading, Pa., 1989, version 2.3). The measurement of Ki (inhibition constant) was obtained through enzymatic inhibition essays carried out under stationary conditions. […] The enzyme is added finally. The assay aiming at controlling TS enzymatic activity is repeated at regular intervals. […] In this case inhibition constants were obtained through a non-linear regression analysis, which utilized of the least squared method, of the enzymatic reaction initial speeds relating to the inhibitor concentration; equation was the following:
Vi=Vmax*(1−([I])/([I]+(Ki*(1+([s]/Km))))), where
Vi=enzymatic reaction initial velocity, Vmax=enzymatic reaction maximum velocity, I=inhibitor concentration, Ki=inhibition constant, S=substrate concentration, Km=Michaelis-Menten.
Using this equation it is possible to obtain Ki making use of a minimal amount of experimental data. The specificity index relating to each of the compounds (Bio. Med. Chem. ) refers to the relation between KihTS/Kiother enzyme.

[3] = test system: S. epidermidis strains (multiresistant); assay: Sensitivity assay and growth curve, multiresistant S. epidermidis strains; assay type: cell-based, Staphylococcus epidermidis
Procedure: (§2) The bacterial cultures were obtained by sowing bacteria in Mueller-Hinton (Difco) stirring at 37 C for 24 hours, and were then diluted, after reaching an appreciable level of exponential growth, using a growth plot in order to get a […] CFU/mL inoculum.
(§3) Following, the obtained cultures were put in contact with growing concentrations of the present compound. Furthermore, it was measured the minimal concentration inhibiting the growth (MIC) of each of these compounds. In Table 2 several MIC obtained by different bacterial pathogenic strains have been reported that were treated using compounds of the present invention and were also compared with those obtained through ciprofluoxacin (cpx).

[4] = test system: VERO cells; assay: Citotoxicity assay (MTT test on VERO cells); assay type: cell-based; details: for MTT test, percentage of cellular growth: VERO cells, 24-hour incubation
Procedure: Aiming at evaluating the citotoxicity level, the compounds included in the present invention were submitted to the MTT assay, by using VERO cells on MEM soil/ground which was previously added with […]), penicillin (1%) (50 U/ml), streptomycine (50 μg/ml) e L-glutamine (1%) according to the Ishioka method (1988). Afterwards the cultures have been observed for 2 days through microscope at indirect light, and the living cells have been quantified in a Burker camera using the Tripan blue exclusion assay.
Later several increasing concentrations of the analyzed compound were added thereto and, after a 24-hour incubation period, the mitochondrial dehydrogenase activity was measured in the living cells (MTT assay) (Mosmann, T. 1983), by using a sample of the hereof compound which had not been previously as a comparison.

[5] = test system: Staphylococcus aureus ATCC29213; assay: Sensitivity assay (MIC); assay type: cell-based
Procedure: (§4) The anti-bacterial properties of the compounds hereby described were evaluated towards: a) bacterial native strains comprehending gram-positive and gram-negative bacteria. The bacterial cultures were obtained by sowing bacteria in Mueller-Hinton (Difco) stirring at 37 C for 24 hours, and were then diluted, after reaching an appreciable level of exponential growth, using a growth plot in order to get a […] CFU/mL inoculum. Following, the obtained cultures were put in contact with growing concentrations of the present compound. Furthermore, it was measured the minimal concentration inhibiting the growth (MIC) of each of these compounds. In Table 2 several MIC obtained by different bacterial pathogenic strains have been reported that were treated using compounds of the present invention and were also compared with those obtained through ciprofluoxacin (cpx).

[6] = test system: Escherichia coli 292; assay: Sensitivity assay (MIC); assay type: cell-based
Procedure: as §4

[7] = test system: Staphylococcus aureus 341; assay: Sensitivity assay (MIC); assay type: cell-based
Procedure: as §4

[8] = test system: Citrobacter 224; assay: Sensitivity assay (MIC); assay type: cell-based
Procedure: as §4

[9] = test system: Listeria monocytogenes 6; assay: Sensitivity assay (MIC); assay type: cell-based
Procedure: as §4

[10] = test system: Staphylococcus aureus 343; assay: Sensitivity assay (MIC); assay type: cell-based
Procedure: as §4

[11] = test system: Streptococcus 42; assay: Sensitivity assay (MIC); assay type: cell-based
Procedure: as §4

[12] = test system: Staphylococcus aureus K28; assay: Sensitivity assay (MIC); assay type: cell-based
Procedure: as §4

[13] = test system: Staphylococcus haemolyticus ATCC 2997; assay: Sensitivity assay (MIC); assay type: cell-based
Procedure: as §4

[14] = test system: Listeria monocytogenes 5; assay: Sensitivity assay (MIC); assay type: cell-based
Procedure: as §4

[15] = test system: Enterococcus faecalis ATCCC 29212; assay: Sensitivity assay (MIC); assay type: cell-based
Procedure: as §4

[16] = test system: Listeria monocytogenes 4; assay: Sensitivity assay (MIC); assay type: cell-based
Procedure: as §4

[17] = test system: Listeria monocytogenes 7; assay: Sensitivity assay (MIC); assay type: cell-based
Procedure: as §4

[18] = test system: Staphylococcus saprophiticus ATCC15305; assay: Sensitivity assay (MIC); assay type: cell-based
Procedure: as §4

[19] = test system: Listeria monocytogenes 3; assay: Sensitivity assay (MIC); assay type: cell-based
Procedure: as §4

[20] = test system: Escherichia coli 256; assay: Sensitivity assay (MIC); assay type: cell-based
Procedure: as §4

[21] = test system: Listeria monocytogenes ATCC 4428; assay: Sensitivity assay (MIC); assay type: cell-based
Procedure: as §4

[22] = test system: Listeria monocytogenes 8; assay: Sensitivity assay (MIC); assay type: cell-based
Procedure: as §4

[23] = test system: multiresistant strains (clinical isolates); assay: Sensitivity assay on 23 isolated multiresistant bacterial strains; assay type: cell-based; details: multiresistant strains taken into consideration
Procedure: as §2, §3

Chain of CnTS (P0CS12 whole entry): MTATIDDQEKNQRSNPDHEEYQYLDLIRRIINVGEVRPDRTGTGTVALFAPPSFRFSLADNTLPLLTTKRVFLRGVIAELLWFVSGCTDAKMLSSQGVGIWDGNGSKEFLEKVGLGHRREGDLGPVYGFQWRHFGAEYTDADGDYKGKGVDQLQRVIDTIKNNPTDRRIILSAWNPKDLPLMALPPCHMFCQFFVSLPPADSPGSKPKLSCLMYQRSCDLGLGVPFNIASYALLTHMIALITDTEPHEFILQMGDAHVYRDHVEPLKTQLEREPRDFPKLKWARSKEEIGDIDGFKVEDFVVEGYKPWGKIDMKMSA

Structure (SMILES) | Ki [1] [µM] | SSI hTS vs hDHFR [1] | Ki [2] [µM] | Minimum inhibitory concentration (MIC) [5] [µg/mL] | Minimum inhibitory concentration (MIC) [6] [µg/mL] | Minimum inhibitory concentration (MIC) [7] [µg/mL] | Minimum inhibitory concentration (MIC) [8] [µg/mL] | Minimum inhibitory concentration (MIC) [9] [µg/mL] | Minimum inhibitory concentration (MIC) [10] [µg/mL] | Minimum inhibitory concentration (MIC) [11] [µg/mL] | Minimum inhibitory concentration (MIC) [12] [µg/mL] | Minimum inhibitory concentration (MIC) [13] [µg/mL] | Minimum inhibitory concentration (MIC) [14] [µg/mL] | Minimum inhibitory concentration (MIC) [15] [µg/mL] | Minimum inhibitory concentration (MIC) [16] [µg/mL] | Minimum inhibitory concentration (MIC) [17] [µg/mL] | Minimum inhibitory concentration (MIC) [18] [µg/mL] | Minimum inhibitory concentration (MIC) [19] [µg/mL] | Minimum inhibitory concentration (MIC) [20] [µg/mL] | Minimum inhibitory concentration (MIC) [21] [µg/mL] | other results
Cc1cc(O)c(C(C)C)cc1C1(c2cc(C(C)C)c(O)cc2C)OC(=O)c2c1ccc1ccccc21 [Compound 2, 33,3-Bis-(4-hydroxyl-5-isopropyl-2-methylphenyl)-3H-naphtho(1,2-c)furan-1-one] | 35 | 88 | 0.6 | – | – | – | – | – | – | – | – | – | – | – | – | – | – | – | – | – | –
O=C1OC(c2ccc(O)c(I)c2)(c2ccc(O)c(I)c2)c2ccc3ccccc3c21 [Compound 3] | 3.9 | 0.01 | 4.5 | – | – | – | – | – | – | – | – | – | – | – | – | – | – | – | – | – | –
O=C1OC(c2ccc(O)c(Br)c2)(c2ccc(O)c(Br)c2)c2ccc3ccccc3c21 [Compound 4] | 33 | 0.2 | 2.7 | – | – | – | – | – | – | – | – | – | – | – | – | – | – | – | – | – | –
O=C1OC(c2cc(Br)c(O)c(Br)c2)(c2cc(Br)c(O)c(Br)c2)c2ccc3ccccc3c21 [Compound 5, 3,3-bis-(3,5-bromo-4-hydroxyphenyl)-3H-naphtho(1,2-c)furan-1-one] | 69 | 0.3 | 13 | 2.5 (≈ 3.66 µM) | >25 | 2.5 (≈ 3.66 µM) | >25 | 2.5 (≈ 3.66 µM) | 2.5 (≈ 3.66 µM) | 2.5 (≈ 3.66 µM) | 2.5 (≈ 3.66 µM) | 2.5 (≈ 3.66 µM) | 2.5 (≈ 3.66 µM) | 2.5 (≈ 3.66 µM) | 2.5 (≈ 3.66 µM) | 2.5 (≈ 3.66 µM) | 1 (≈ 1.46 µM) | 2.5 (≈ 3.66 µM) | >25 | 2.5 (≈ 3.66 µM) | inhibitory effect on S. epidermidis growth (FIG. 1) ([3]; 0.1 mg/L): No inhibitory effect; antibacterial activity on S. epidermidis growth (FIG. 1) ([3]; 0.5 mg/L, after a 8 hours period): antibacterial activity becomes evident; antibacterial effect on S. epidermidis growth (FIG. 1) ([3]; 1 mg/L): best result; concentration to which the strain is sensitive ([3]; S. epidemidis strain resistant to 17 antibiotics): 0.5 mg/L; lowest MIC on S. epidermidis strains ([3]; multiresistant S. epidermidis strains): 0.5 to 1 µg/mL; citotoxicity ([4]; 1 mg/L, VERO cells (Table 3)): not to be citotoxic; MTT test, percentage of cellular growth ([4]; 1.56 mg/L): 100 percentage; MTT test, percentage of cellular growth ([4]; 3.12 mg/L): 100 percentage; MTT test, percentage of cellular growth ([4]; 6.25 mg/L): 100 percentage; MTT test, percentage of cellular growth ([4]; 12.05 mg/L): 100 percentage; MTT test, percentage of cellular growth ([4]; 25 mg/L): 100 percentage; MTT test, percentage of cellular growth ([4]; 50 mg/L): >100 percentage; Minimum inhibitory concentration (MIC) [22]: 2.5 µg/mL (≈ 3.66 µM); activity on multiresistant strains [23]: active on the major part of the multiresistant strains
O=C1OC(c2ccc(O)cc2)(c2ccc(O)cc2)c2ccc3ccccc3c21 [Compound 6, 3,3-Bis-(4-hydroxyphenyl)-1H-naphtho[1,2-c]furan-3-one] | 13 | – | – | – | – | – | – | – | – | – | – | – | – | – | – | – | – | – | – | – | –
O=C1OC(c2ccc(O)c(Cl)c2)(c2ccc(O)c(Cl)c2)c2ccc3ccccc3c21 [Compound 7, 3,3-Bis-(3-chlorine-4-hydroxyphenyl)1H-naphtho(1,2-c)furan-3-one] | – | 1 | 8.1 | – | – | – | – | – | – | – | – | – | – | – | – | – | – | – | – | – | –
O=C1OC(c2ccc(O)c(F)c2)(c2ccc(O)c(F)c2)c2ccc3ccccc3c21 [Compound 8, 3,3-Bis-(3-fluorine-4-hydroxyphenyl)1H-naphtho(1,2-c)furan-3-one] | 109 | 1 | 3.5 | 25 (≈ 61.8 µM) | >50 | 25 (≈ 61.8 µM) | >50 | 25 (≈ 61.8 µM) | 25 (≈ 61.8 µM) | 25 (≈ 61.8 µM) | 25 (≈ 61.8 µM) | 25 (≈ 61.8 µM) | 25 (≈ 61.8 µM) | 25 (≈ 61.8 µM) | 25 (≈ 61.8 µM) | 25 (≈ 61.8 µM) | 25 (≈ 61.8 µM) | 25 (≈ 61.8 µM) | >50 | 25 (≈ 61.8 µM) | Minimum inhibitory concentration (MIC) [22]: 25 µg/mL (≈ 61.8 µM)
O=C(O)c1cn(C2CC2)c2cc(N3CCNCC3)c(F)cc2c1=O [cpx, ciprofluoxacin, reference compound] | – | – | – | 0.5 (≈ 1.51 µM) | >25 | 1.2 (≈ 3.62 µM) | >25 | 2.5 (≈ 7.54 µM) | 0.5 (≈ 1.51 µM) | >5 | 0.5 (≈ 1.51 µM) | 2.5 (≈ 7.54 µM) | 2.5 (≈ 7.54 µM) | 12.5 (≈ 37.7 µM) | 1 (≈ 3.02 µM) | 1 (≈ 3.02 µM) | 1 (≈ 3.02 µM) | 2.5 (≈ 7.54 µM) | >25 | 2.5 (≈ 7.54 µM) | Minimum inhibitory concentration (MIC) [22]: 1 µg/mL (≈ 3.02 µM)
